# Experiments:
# Adenosine receptor A1 = biological target: T1, Adenosine receptor A1 (Homo sapiens, UniProt P30542)
# T1 sequence (P30542 whole entry): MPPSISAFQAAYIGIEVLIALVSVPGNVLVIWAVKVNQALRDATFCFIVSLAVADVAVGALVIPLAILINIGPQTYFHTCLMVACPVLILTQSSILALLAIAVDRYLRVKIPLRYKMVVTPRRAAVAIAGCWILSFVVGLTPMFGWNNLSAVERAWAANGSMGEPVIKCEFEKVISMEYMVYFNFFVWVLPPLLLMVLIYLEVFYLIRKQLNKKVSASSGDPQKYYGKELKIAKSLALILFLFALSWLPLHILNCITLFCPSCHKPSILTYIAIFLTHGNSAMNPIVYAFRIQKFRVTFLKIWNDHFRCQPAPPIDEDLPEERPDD
# [1] = biological target: T2, Alpha-2B adrenergic receptor (Homo sapiens, UniProt P18089)
# T2 sequence (P18089 whole entry): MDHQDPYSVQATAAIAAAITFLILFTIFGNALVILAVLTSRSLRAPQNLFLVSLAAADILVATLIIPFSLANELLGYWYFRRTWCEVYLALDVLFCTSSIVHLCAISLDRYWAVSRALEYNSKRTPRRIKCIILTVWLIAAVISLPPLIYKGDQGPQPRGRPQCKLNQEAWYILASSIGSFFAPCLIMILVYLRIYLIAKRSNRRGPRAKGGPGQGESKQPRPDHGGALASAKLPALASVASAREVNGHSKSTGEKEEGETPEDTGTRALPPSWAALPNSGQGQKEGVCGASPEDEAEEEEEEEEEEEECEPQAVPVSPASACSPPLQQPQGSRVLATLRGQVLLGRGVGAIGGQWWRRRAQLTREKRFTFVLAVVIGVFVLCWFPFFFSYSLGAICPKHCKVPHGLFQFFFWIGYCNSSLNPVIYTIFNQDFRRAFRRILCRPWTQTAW
# B1 bradykinin receptor = biological target: T3, B1 bradykinin receptor (Homo sapiens, UniProt P46663)
# T3 sequence (P46663 whole entry): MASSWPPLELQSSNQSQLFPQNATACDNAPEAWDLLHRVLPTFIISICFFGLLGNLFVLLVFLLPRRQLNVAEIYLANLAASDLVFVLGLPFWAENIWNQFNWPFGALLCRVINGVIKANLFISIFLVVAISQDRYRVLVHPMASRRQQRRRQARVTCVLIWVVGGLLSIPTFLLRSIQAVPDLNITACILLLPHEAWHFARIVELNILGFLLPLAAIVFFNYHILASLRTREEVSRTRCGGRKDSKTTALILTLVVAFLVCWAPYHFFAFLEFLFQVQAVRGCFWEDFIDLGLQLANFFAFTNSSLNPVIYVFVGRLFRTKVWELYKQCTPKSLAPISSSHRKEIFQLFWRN
# [2] = biological target: Voltage-dependent N-type calcium channel subunit alpha-1B (Rattus norvegicus, UniProt Q02294); assay type: functional
# Voltage-dependent N-type calcium channel subunit alpha-1B, sequence (Q02294 whole entry): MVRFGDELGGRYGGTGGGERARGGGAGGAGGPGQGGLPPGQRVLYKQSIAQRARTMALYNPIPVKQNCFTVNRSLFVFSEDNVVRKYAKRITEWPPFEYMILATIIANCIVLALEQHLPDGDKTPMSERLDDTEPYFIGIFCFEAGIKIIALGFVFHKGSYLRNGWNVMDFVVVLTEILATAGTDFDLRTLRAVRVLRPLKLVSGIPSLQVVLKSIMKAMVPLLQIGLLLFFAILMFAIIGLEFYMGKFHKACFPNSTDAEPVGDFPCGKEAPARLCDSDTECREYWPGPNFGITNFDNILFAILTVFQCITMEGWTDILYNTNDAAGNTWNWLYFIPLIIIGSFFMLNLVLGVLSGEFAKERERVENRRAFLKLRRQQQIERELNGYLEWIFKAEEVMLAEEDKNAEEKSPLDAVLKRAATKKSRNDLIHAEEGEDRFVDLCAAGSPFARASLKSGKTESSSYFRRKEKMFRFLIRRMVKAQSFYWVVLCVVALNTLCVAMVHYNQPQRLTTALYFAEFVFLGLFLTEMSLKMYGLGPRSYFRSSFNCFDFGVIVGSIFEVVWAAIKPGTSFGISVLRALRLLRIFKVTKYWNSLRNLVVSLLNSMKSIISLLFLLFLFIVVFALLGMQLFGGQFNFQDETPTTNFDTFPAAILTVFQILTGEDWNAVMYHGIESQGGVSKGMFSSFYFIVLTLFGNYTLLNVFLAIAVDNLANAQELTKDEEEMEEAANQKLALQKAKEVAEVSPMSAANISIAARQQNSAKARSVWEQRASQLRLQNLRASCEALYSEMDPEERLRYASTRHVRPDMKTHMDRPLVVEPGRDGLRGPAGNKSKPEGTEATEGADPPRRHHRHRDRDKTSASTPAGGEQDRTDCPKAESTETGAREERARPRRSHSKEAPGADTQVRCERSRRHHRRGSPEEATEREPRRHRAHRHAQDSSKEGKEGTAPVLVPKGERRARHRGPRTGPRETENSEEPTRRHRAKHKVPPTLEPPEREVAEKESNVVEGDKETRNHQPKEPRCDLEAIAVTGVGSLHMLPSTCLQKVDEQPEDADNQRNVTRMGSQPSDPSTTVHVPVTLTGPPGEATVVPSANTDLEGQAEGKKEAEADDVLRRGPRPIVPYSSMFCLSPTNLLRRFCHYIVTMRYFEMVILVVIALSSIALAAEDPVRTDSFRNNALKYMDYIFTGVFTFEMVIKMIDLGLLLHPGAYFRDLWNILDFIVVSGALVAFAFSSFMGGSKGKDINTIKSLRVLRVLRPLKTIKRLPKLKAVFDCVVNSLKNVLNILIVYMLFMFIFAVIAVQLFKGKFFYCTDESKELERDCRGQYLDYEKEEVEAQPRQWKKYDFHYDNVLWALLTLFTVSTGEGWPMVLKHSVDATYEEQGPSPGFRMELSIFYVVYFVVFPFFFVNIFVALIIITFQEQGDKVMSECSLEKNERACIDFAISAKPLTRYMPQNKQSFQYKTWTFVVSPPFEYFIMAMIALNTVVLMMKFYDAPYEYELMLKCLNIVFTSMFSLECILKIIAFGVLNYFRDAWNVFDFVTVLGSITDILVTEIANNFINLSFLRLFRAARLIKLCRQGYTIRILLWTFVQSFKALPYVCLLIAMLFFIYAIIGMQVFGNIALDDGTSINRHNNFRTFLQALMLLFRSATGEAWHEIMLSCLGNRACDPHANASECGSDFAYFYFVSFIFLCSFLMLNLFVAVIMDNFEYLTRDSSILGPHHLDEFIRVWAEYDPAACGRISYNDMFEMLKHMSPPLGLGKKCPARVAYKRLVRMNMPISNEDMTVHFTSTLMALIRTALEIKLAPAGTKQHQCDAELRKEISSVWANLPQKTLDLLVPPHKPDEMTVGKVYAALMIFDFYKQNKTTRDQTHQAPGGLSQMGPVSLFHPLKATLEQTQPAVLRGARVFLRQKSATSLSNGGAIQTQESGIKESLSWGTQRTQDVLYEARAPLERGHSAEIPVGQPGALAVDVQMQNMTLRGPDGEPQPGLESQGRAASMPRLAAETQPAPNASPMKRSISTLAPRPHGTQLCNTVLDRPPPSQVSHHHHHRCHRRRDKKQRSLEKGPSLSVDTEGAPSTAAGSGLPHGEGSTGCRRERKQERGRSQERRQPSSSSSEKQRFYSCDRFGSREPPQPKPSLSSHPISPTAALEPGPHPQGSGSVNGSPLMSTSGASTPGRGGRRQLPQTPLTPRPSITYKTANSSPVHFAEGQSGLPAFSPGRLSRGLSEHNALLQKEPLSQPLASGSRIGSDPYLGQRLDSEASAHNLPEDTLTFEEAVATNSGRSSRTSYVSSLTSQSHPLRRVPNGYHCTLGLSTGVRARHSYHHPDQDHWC
# [3] = biological target: T4, Muscarinic acetylcholine receptor M1 (Homo sapiens, UniProt P11229); assay type: functional
# T4 sequence (P11229 whole entry): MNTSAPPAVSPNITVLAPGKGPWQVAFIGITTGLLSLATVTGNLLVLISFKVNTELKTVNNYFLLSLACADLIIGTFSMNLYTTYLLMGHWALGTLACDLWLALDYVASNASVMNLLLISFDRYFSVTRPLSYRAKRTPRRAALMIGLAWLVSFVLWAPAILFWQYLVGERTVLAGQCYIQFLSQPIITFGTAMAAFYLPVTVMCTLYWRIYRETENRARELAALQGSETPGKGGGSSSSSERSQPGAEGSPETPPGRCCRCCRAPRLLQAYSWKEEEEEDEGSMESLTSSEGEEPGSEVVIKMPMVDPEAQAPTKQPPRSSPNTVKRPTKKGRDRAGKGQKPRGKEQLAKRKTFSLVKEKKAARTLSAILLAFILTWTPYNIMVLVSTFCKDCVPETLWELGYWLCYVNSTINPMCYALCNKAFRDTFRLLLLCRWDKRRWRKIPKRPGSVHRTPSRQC
# [4] = biological target: Gamma-aminobutyric acid receptor subunit alpha-1/alpha-2/beta-2/gamma-2 (Homo sapiens, UniProt P14867+P18507+P47869+P47870); assay type: functional, cell-based
# Gamma-aminobutyric acid receptor subunit alpha-1/alpha-2/beta-2/gamma-2, sequence (P14867 whole entry): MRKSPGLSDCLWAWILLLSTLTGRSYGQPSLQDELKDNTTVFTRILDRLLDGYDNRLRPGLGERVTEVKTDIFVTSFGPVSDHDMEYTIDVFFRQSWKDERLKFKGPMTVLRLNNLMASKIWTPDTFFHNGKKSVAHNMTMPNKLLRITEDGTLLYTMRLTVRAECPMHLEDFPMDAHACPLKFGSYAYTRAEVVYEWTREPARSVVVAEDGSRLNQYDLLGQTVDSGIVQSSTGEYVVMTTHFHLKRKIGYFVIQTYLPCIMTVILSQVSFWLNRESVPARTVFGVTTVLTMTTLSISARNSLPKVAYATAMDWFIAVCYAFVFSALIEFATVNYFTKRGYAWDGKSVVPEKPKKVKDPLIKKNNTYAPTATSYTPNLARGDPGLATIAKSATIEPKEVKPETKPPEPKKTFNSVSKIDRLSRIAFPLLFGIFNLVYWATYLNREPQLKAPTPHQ
# Gamma-aminobutyric acid receptor subunit alpha-1/alpha-2/beta-2/gamma-2, sequence (P47870 whole entry): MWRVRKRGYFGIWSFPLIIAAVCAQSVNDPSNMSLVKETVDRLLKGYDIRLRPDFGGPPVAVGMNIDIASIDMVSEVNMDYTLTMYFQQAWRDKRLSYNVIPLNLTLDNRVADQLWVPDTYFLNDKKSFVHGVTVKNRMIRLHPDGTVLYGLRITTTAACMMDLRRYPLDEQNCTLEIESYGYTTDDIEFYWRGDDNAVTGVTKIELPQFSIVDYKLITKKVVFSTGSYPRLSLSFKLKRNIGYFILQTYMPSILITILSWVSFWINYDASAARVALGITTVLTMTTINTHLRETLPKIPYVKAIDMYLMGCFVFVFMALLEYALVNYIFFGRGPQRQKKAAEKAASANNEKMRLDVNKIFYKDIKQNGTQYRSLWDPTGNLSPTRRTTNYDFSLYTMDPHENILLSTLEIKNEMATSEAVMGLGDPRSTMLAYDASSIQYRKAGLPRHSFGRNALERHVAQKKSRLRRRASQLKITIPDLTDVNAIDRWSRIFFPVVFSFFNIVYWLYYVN
# Gamma-aminobutyric acid receptor subunit alpha-1/alpha-2/beta-2/gamma-2, sequence (P18507 whole entry): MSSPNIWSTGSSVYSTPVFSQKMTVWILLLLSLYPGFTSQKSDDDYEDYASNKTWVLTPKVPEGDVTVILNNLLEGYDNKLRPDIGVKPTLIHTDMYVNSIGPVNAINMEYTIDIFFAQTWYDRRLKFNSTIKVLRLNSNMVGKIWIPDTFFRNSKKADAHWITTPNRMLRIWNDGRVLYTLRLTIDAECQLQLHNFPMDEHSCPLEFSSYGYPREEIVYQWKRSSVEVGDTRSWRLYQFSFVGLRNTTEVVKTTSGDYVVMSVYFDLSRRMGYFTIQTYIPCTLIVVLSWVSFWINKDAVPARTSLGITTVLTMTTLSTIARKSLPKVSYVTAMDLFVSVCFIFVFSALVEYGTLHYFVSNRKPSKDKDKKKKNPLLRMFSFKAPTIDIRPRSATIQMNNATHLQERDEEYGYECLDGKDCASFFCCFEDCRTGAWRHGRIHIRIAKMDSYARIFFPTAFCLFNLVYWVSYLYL
# Gamma-aminobutyric acid receptor subunit alpha-1/alpha-2/beta-2/gamma-2, sequence (P47869 whole entry): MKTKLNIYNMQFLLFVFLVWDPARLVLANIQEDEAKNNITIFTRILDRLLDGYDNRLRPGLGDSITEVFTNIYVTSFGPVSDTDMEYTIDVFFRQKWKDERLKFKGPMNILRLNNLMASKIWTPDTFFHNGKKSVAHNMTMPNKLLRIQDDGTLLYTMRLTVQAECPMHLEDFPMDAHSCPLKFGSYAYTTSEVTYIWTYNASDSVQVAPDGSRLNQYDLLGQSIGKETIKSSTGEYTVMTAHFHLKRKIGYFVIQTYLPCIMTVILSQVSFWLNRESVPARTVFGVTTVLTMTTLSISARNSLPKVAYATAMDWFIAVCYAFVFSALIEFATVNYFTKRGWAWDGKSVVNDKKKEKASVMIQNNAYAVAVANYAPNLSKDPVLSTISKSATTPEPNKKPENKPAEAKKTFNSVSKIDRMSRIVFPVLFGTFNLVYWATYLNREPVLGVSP
# Histamine H2 receptor = Histamine H2 receptor (Homo sapiens, UniProt P25021)
# Histamine H2 receptor, sequence (P25021 whole entry): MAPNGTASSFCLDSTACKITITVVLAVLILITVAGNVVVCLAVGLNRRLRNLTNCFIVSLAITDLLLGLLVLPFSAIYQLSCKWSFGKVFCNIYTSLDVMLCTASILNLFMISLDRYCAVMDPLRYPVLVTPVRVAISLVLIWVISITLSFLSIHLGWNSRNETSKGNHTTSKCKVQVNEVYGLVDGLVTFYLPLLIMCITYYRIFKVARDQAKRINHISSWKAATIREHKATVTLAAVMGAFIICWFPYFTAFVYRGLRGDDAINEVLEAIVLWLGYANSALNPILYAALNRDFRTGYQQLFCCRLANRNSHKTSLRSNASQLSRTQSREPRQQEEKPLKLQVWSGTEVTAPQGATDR
# [5] = biological target: 5-hydroxytryptamine receptor 2B (Homo sapiens, UniProt P41595)
# [6] = biological target: 5-hydroxytryptamine receptor 2A (Homo sapiens, UniProt P28223); assay type: functional, cell-based
# 5-hydroxytryptamine receptor 2A, sequence (P28223 whole entry): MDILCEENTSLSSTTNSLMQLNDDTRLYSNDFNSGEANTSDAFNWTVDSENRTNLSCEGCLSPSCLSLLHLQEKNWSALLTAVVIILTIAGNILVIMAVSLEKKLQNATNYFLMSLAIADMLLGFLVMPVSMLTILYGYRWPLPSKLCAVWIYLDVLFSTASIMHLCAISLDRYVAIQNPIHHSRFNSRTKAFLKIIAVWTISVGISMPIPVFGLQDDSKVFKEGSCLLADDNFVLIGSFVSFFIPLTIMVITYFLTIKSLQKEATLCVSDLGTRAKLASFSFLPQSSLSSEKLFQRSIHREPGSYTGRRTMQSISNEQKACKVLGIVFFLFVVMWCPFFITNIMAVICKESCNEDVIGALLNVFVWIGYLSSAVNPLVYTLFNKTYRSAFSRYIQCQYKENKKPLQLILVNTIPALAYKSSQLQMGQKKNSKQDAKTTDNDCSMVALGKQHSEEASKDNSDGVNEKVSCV
# [7] = biological target: T5, Gastric inhibitory polypeptide receptor (Homo sapiens, UniProt P48546)
# T5 sequence (P48546 whole entry): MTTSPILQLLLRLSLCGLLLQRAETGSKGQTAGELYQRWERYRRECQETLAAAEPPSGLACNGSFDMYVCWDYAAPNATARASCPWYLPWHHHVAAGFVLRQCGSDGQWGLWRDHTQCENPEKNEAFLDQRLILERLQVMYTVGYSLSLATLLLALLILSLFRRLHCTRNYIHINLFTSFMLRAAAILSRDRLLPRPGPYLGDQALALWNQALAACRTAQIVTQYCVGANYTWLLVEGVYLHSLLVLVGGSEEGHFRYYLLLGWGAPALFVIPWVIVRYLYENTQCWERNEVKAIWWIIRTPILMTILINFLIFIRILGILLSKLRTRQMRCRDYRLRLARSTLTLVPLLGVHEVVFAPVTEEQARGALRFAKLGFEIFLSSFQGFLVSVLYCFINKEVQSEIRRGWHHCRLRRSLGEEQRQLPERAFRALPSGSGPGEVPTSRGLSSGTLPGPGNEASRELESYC
# [8] = biological target: Neurotensin receptor type 1 (Homo sapiens, UniProt P30989)
# Note: assay procedure not described here.
Compound,AC50 (Adenosine receptor A1) [µM],AC50 [1] [µM],AC50 (B1 bradykinin receptor) [µM],AC50 [2] [µM],AC50 [3] [µM],AC50 [4] [µM],AC50 (Histamine H2 receptor) [µM],AC50 [5] [µM],AC50 [6] [µM],AC50 [7] [µM],AC50 [8] [µM]
CCCN(CCC)C(=O)Cc1c(-c2ccc(Cl)cc2)nc2ccc(Cl)cn12 [ALPIDEM],14.4,> 30,> 10,> 10,> 30,> 10,> 10,> 10,–,–,–
OC[C@H]1O[C@@](CO)(O[C@H]2O[C@H](CO)[C@@H](O)[C@H](O)[C@H]2O)[C@@H](O)[C@@H]1O [SUCROSE],> 30,> 30,–,–,> 30,> 30,–,–,> 30,–,–
C=CC[C@@H]1/C=C(\C)C[C@H](C)C[C@H](OC)[C@H]2O[C@@](O)(C(=O)C(=O)N3CCCC[C@H]3C(=O)O[C@H](/C(C)=C/[C@@H]3CC[C@@H](O)[C@H](OC)C3)[C@H](C)[C@@H](O)CC1=O)[C@H](C)C[C@@H]2OC [TACROLIMUS ANHYDROUS],–,–,> 30,> 10,–,> 30,> 10,> 10,–,> 30,> 30
N[C@@H](CC(=O)N1CCn2c(nnc2C(F)(F)F)C1)Cc1cc(F)c(F)cc1F [SITAGLIPTIN],–,> 30,> 10,> 10,> 30,> 30,> 10,> 10,–,–,> 10
CN(CC1(C)CCCO1)S(=O)(=O)c1ccc(Cl)c(S(N)(=O)=O)c1 (configuration not stated) [MEFRUSIDE],> 30,> 30,–,–,> 30,> 30,–,–,> 30,–,–
C[C@@H](Oc1cc(-c2cnn(C3CCNCC3)c2)cnc1N)c1c(Cl)ccc(F)c1Cl [CRIZOTINIB],–,> 30,–,–,> 30,> 30,–,0.316,–,–,–
CN(C)CCc1c[nH]c2ccc(Cn3cncn3)cc12 [RIZATRIPTAN],–,> 30,> 30,> 10,> 30,> 30,> 10,12,–,> 30,> 30
COc1cc2nccc(Oc3ccc(NC(=O)C4(C(=O)Nc5ccc(F)cc5)CC4)cc3)c2cc1OC [CABOZANTINIB],–,> 30,–,–,> 30,> 30,–,–,2.9,–,–
CC(C)c1nc(N(C)S(C)(=O)=O)nc(-c2ccc(F)cc2)c1/C=C/[C@@H](O)C[C@@H](O)CC(=O)O [ROSUVASTATIN],–,> 30,–,–,> 30,> 30,–,–,> 30,–,–
C[C@H](CCC(=O)O)[C@H]1CC[C@H]2[C@@H]3[C@@H](O)C[C@@H]4C[C@H](O)CC[C@]4(C)[C@H]3CC[C@]12C [URSODIOL],–,> 30,–,–,> 30,> 30,–,–,> 30,–,–
CC(S)C(=O)NCC(=O)O (configuration not stated) [TIOPRONIN],–,> 30,–,–,> 30,> 30,–,–,> 30,–,–
